Data reported in patent publication US20080050720A1 (priority 2003, published 2008).

Assays:
[1] = system: lawn of the YMR325W reporter strain (S. Cerevisiae strain ABY12); experiment: Solid plate halo assay, growth of reporter strain lawn; type: cell-based; conditions: paper disc; 20 ul of 50 ug/ml Miconazole or 20 ul of 1500 ug/ml Lovastatin; 30° C.
Procedure: (§1) The assay was designed to mimic assays of natural product producing strains in the presence of ABY12 reporter carrying strains.
(§2) 1. A YMR325W reporter was transformed into wild-type S. Cerevisiae strain ABY12 and grown on a solid Casamino Acids media plate.
(§3) 2. A culture from the solid media plate was used to inoculate a 50 ml liquid culture in Casamino Acids media. The liquid culture was grown overnight at 30° C. to a final OD600=8, and then diluted in Casamino Acids media to an OD600=1, or about 1×10^7 cells per milliliter. Five-hundred microliters of cell culture (about 5×10^6 cells) was spread evenly over the surface of each of two 100 mm solid agar-Casamino-acids-media plates to form a lawn of the YMR325W reporter strain on each plate.
3. Two 6 mm diameter blank paper discs (Becton Dickinson #231039), evenly spaced apart, were placed on top of the agar surface of each plate. On one plate 20 ul of 50 ug/ml of the sterol biosynthesis inhibitor Miconazole was spotted onto one of the two paper discs and 20 ul of 10% DMSO was spotted on the other paper disc as a control. On the other plate 20 ul of 1500 ug/ml Lovastatin was spotted onto one of the two paper discs and 20 ul of 10% DMSO was spotted on the other paper disc as a control. […]
(§4) 4. After a 72 hour incubation the assay plates were imaged in a Molecular Dynamics Fluorimager SI to measure the fluorescence from the GFP reporters.

YMR325W reporter = experiment: Solid plate halo assay, fluorescence from the GFP reporter; type: cell-based, S. cerevisiae; conditions: for induction of YMR325W reporter (zone of high fluorescence at the edge of halo): paper disc, 20 ul of 50 ug/ml Miconazole or 20 ul of 1500 ug/ml Lovastatin, 30° C.
Procedure: as §1, §2, §3
3. Two 6 mm diameter blank paper discs (Becton Dickinson #231039), evenly spaced apart, were placed on top of the agar surface of each plate. On one plate 20 ul of 50 ug/ml of the sterol biosynthesis inhibitor Miconazole was spotted onto one of the two paper discs and 20 ul of 10% DMSO was spotted on the other paper disc as a control. On the other plate 20 ul of 1500 ug/ml Lovastatin was spotted onto one of the two paper discs and 20 ul of 10% DMSO was spotted on the other paper disc as a control. The plates were incubated at 30° C. overnight.
as §4

YMR325W gene reporter = experiment: 96-well liquid high-throughput like assay with YMR325W-GFP reporter strain; type: cell-based, S. cerevisiae; conditions: serial 1 to 2 dilutions; initial Lovastatin 30 ug/ml, Miconazole 25 ug/ml, Fenpropimorph 50 ug/ml, Tunicamycin 25 ug/ml; 30° C., about 24 hours
Procedure: 1. A YMR325W gene reporter was transformed into wild-type S. Cerevisiae strain ABY12 and grown on solid Casamino Acids media plates.
2. A culture from the solid media plate was used to inoculate a 50 ml liquid culture in Casamino Acids media. The liquid culture was grown overnight at 30° C. to an OD600=8, and then was diluted in Casamino Acids media to an OD600=1.
3. Drug-like agents Lovastatin, Miconazole, and Fenpropimorph, sterol biosynthesis inhibitors that target different molecular steps in the sterol biosynthesis pathway, and UDP-N-acetyl-glucosamine-1-P transferase (GPT) inhibitor Tunicamycin, a negative control, were used in the assay. Each of the four drugs was added to individual wells (one drug per well) in the second column of a 96-well assay plate and serially diluted (1 to 2) into Casamino Acids media plus 2% DMSO in columns 3-12. The initial concentrations of the drugs were as follows: Lovastatin: 30 ug/ml, Miconazole: 25 ug/ml, Fenpropimorph: 50 ug/ml, and Tunicamycin: 25 ug/ml. The first column of the plate was used as a “no drug” control, containing only Casamino Acids media plus 2% DMSO. Each well contained a final volume of 100 ul of media and/or media plus drug.
4. […]
5. After the 24 hour incubation the 96-well assay plate was imaged in a Molecular Dynamics Fluorimager SI to measure the fluorescence from the YMR325W-GFP reporter.

Row | Molecule | growth inhibition of the lawn (halo of no growth) [1] | size of zone of fluorescence, Lovastatin compared with Miconazole (YMR325W reporter; 20 ul of 1500 ug/ml Lovastatin versus 20 ul of 50 ug/ml Miconazole) | induction of YMR325W reporter (zone of high fluorescence at the edge of halo) (YMR325W reporter) | fluorescence from the YMR325W-GFP reporter (YMR325W gene reporter)
1 | CC[C@H](C)C(=O)O[C@H]1C[C@@H](C)C=C2C=C[C@H](C)[C@H](CC[C@@H]3C[C@@H](O)CC(=O)O3)[C@H]21 [Lovastatin] | inhibited the growth | much larger zone of fluorescence | significantly induced | –
2 | Clc1ccc(COC(Cn2ccnc2)c2ccc(Cl)cc2Cl)c(Cl)c1 (stereo not drawn) [Miconazole] | inhibited the growth | – | significantly induced | –
3 | Tunicamycin | – | – | – | No increase in fluorescence
